The values below come from ChEMBL document CHEMBL1201862, “PubChem BioAssay data set” (2004).

Test systems include SF-295; BT-549; NCI-H23; OVCAR-4; OVCAR-3; SK-OV-3; UACC-257; HOP-62; DU-145; MCF7; SK-MEL-5; 786-0; SNB-75; MOLT-4; NCI-H226; T47D; A498; RPMI-8226; SK-MEL-2.
Experiment in all cases: NCI tumour cell line growth inhibition, 48 h

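Method: 48-hour compound exposure of cells in 96-well plates, five concentrations, linear interpolation of endpoints. GI50: concentration for 50% inhibition of growth.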 The source made the active and inactive calls. No stated cut-off is given here; in the data, active = GI50 up to about 1.1 µM and inactive = higher. Where a SMILES comes first, the peptide text is derived from it. The star is where a group is joined. Boc = CC(C)(C)OC(=O)* Where only a bound is given, the exact number is not on record here.

`C=CCC1(c2ccc(OC)cc2)C=CC(=O)CC1` (stereo not drawn): the GI50 was > 100 µM (inactive) in the assay on SF-295; 70.6 µM (inactive) in the assay on BT-549; > 100 µM (inactive) with NCI-H23; > 100 µM (inactive) in the assay on OVCAR-4; > 100 µM (inactive) with OVCAR-3; > 100 µM (inactive) in the assay on SK-OV-3. The GI50 in the assay with UACC-257, in the assay on HOP-62, with DU-145, in the assay on MCF7, with SK-MEL-5 and with 786-0 was > 100 µM (inactive) throughout. The GI50 was 19.4 µM (inactive) in the assay with SNB-75, 28.6 µM (inactive) in the assay with MOLT-4, > 100 µM (inactive) in the assay with NCI-H226 and > 100 µM (inactive) in the assay with T47D.
In the case of `O=C(NC/C(Cl)=C/Cl)Nc1cccc2c1CCCC2`, the GI50 with SF-295 is > 100 µM (inactive); in the assay on A498 it was 65.8 µM (inactive); with NCI-H23, > 100 µM (inactive); with OVCAR-4, > 100 µM (inactive); with OVCAR-3 it was > 100 µM (inactive); in the assay on SK-OV-3 it was > 100 µM (inactive). Also, the GI50 with RPMI-8226 was 49.8 µM (inactive); in the assay with UACC-257, 58.9 µM (inactive); in the assay on HOP-62 it was > 100 µM (inactive); with DU-145, > 100 µM (inactive); in the assay on MCF7 it was > 100 µM (inactive); in the assay with SK-MEL-5, > 100 µM (inactive). The GI50 in the assay on 786-0 was 89.3 µM (inactive); in the assay on SK-MEL-2, > 100 µM (inactive); in the assay with SNB-75 it was > 100 µM (inactive); in the assay with MOLT-4, 29.5 µM (inactive); with NCI-H226, > 100 µM (inactive); with T47D, 97.9 µM (inactive).
`CC1=CCC(C(C)(C)NC(=O)c2ccccc2)C/C1=N/O` (stereo not drawn): the GI50 in the assay with SF-295, in the assay on BT-549, in the assay with NCI-H23, with OVCAR-4, with OVCAR-3 and in the assay with SK-OV-3 was > 100 µM (inactive) in each case. In addition, the GI50 in the assay on UACC-257, in the assay with HOP-62, in the assay with DU-145, with MCF7, in the assay on SK-MEL-5 and with 786-0 was > 100 µM (inactive) in each case. The GI50 in the assay with SNB-75, with MOLT-4 and in the assay on T47D was > 100 µM (inactive) in each case.
On to `COCCN(CCOC)C(=O)COc1c2cc(C(C)(C)C)cc1Cc1cc(C(C)(C)C)cc(c1OCC(=O)N(CCOC)CCOC)Cc1cc(C(C)(C)C)cc(c1OCC(=O)N(CCOC)CCOC)Cc1cc(C(C)(C)C)cc(c1OCC(=O)N(CCOC)CCOC)Cc1cc(C(C)(C)C)cc(c1OCC(=O)N(CCOC)CCOC)C2`, for which the GI50 with SF-295 is 1.54 µM (inactive); in the assay on A498, 3.17 µM (inactive); in the assay on NCI-H23, 1.19 µM (inactive); with OVCAR-4, 0.467 µM (active); with OVCAR-3, 0.288 µM (active); in the assay on SK-OV-3, 3.05 µM (inactive). For the same compound, the GI50 in the assay on UACC-257 is 1.01 µM (active); with HOP-62, 1.73 µM (inactive); in the assay with DU-145 it was 2.81 µM (inactive); in the assay on MCF7, 1.3 µM (inactive); in the assay with SK-MEL-5, 1.32 µM (inactive); with 786-0 it was 2.15 µM (inactive). For the same compound, the GI50 is 1.02 µM (active) with SK-MEL-2; 0.0881 µM (active) with SNB-75; 1.74 µM (inactive) in the assay with MOLT-4; 1.28 µM (inactive) in the assay on NCI-H226; 1.27 µM (inactive) in the assay on T47D.
Turning to `CC(=O)[C@]12OC(=O)C3=C1[C@H](CC[C@@H]3C)[C@@H](C)C[C@H]2C=C(C)C`, the GI50 in the assay with SF-295 is 6.4 µM (inactive); with A498, 7.96 µM (inactive); in the assay with NCI-H23, 9.14 µM (inactive); in the assay with OVCAR-3, 7.31 µM (inactive); in the assay with SK-OV-3, 11 µM (inactive); in the assay with RPMI-8226 it was 7.26 µM (inactive). The GI50 in the assay with UACC-257 is 9.75 µM (inactive); in the assay with HOP-62, 8.61 µM (inactive); with DU-145, 8.09 µM (inactive); in the assay on MCF7, 8.85 µM (inactive); in the assay on SK-MEL-5, 5.52 µM (inactive); in the assay with 786-0 it was 8.55 µM (inactive). The GI50 with SK-MEL-2 is 7.82 µM (inactive); in the assay on MOLT-4, 10 µM (inactive); in the assay on NCI-H226 it was 8.28 µM (inactive); with T47D it was 6.44 µM (inactive).
Consider `C=Cc1c(C)c(OC)cc2c1Oc1ccc(OC)c(C)c1CC2`, for which the GI50 in the assay with SF-295, with A498, in the assay on NCI-H23, with OVCAR-4, in the assay on SK-OV-3 and with RPMI-8226 was > 100 µM (inactive) in each case. In addition, the GI50 is 43.5 µM (inactive) with UACC-257; > 100 µM (inactive) in the assay on HOP-62; > 100 µM (inactive) with DU-145; > 100 µM (inactive) with MCF7; 53.6 µM (inactive) in the assay on SK-MEL-5; > 100 µM (inactive) in the assay with 786-0. Further, the GI50 was > 100 µM (inactive) with SK-MEL-2; 84.3 µM (inactive) with SNB-75; > 100 µM (inactive) in the assay with MOLT-4; 39.9 µM (inactive) in the assay with NCI-H226; > 100 µM (inactive) with T47D.
In the case of `N/C(=N\O)NCCN1CCCCCCC1`, the GI50 in the assay with SF-295, in the assay on A498, in the assay on NCI-H23, in the assay with OVCAR-4, in the assay on OVCAR-3 and with SK-OV-3 was > 100 µM (inactive) in each case. Also, the GI50 is > 100 µM (inactive) with RPMI-8226; > 100 µM (inactive) in the assay on UACC-257; > 100 µM (inactive) in the assay with HOP-62; > 100 µM (inactive) with DU-145; 26.5 µM (inactive) with MCF7; > 100 µM (inactive) in the assay on SK-MEL-5. In addition, the GI50 in the assay on 786-0 is > 100 µM (inactive); with SK-MEL-2 it was > 100 µM (inactive); in the assay with SNB-75 it was > 100 µM (inactive); in the assay on MOLT-4 it was > 100 µM (inactive); in the assay on NCI-H226 it was > 100 µM (inactive); in the assay with T47D, 80.9 µM (inactive).
`C1CCCCC2(CCCCCCCCC3(CCC1)SCCS3)SCCS2`: the GI50 in the assay on SF-295, in the assay on A498, in the assay on NCI-H23, in the assay with OVCAR-4, in the assay with OVCAR-3 and with SK-OV-3 was > 100 µM (inactive) throughout. Also, the GI50 with UACC-257, in the assay on HOP-62, with DU-145, in the assay on MCF7, in the assay with SK-MEL-5 and in the assay with 786-0 was > 100 µM (inactive) in each case. Moreover, the GI50 in the assay on SK-MEL-2, in the assay with SNB-75, in the assay with NCI-H226 and in the assay with T47D was > 100 µM (inactive) each time.
As for `O=C(NCC(=O)N1CCCC1C(=O)OC(=O)C1CCCN1C(=O)CNC(=O)OCc1ccccc1)OCc1ccccc1` (stereo not drawn), the GI50 is 22.1 µM (inactive) in the assay on SF-295; 73.1 µM (inactive) in the assay with A498; 40.9 µM (inactive) with NCI-H23; 40.6 µM (inactive) in the assay with OVCAR-4; 43.3 µM (inactive) in the assay with OVCAR-3; > 100 µM (inactive) in the assay on SK-OV-3. In addition, the GI50 with RPMI-8226 is 21.7 µM (inactive); with UACC-257, 16.7 µM (inactive); with HOP-62, 26.2 µM (inactive); with DU-145, 52 µM (inactive); in the assay on MCF7 it was 21.1 µM (inactive); with SK-MEL-5, 26.5 µM (inactive). For the same compound, the GI50 was 47.6 µM (inactive) with 786-0; 20.4 µM (inactive) with SK-MEL-2; 14.9 µM (inactive) in the assay on SNB-75; 16.8 µM (inactive) with MOLT-4; 26.1 µM (inactive) in the assay with NCI-H226; 44.9 µM (inactive) in the assay on T47D.
As for `Cc1cc(N(CCC#N)CCC#N)ccc1/C=N/NC(=O)c1cc(Cl)ccc1O`, the GI50 in the assay with SF-295 was 54.7 µM (inactive); with A498 it was > 100 µM (inactive); with NCI-H23 it was > 100 µM (inactive); with OVCAR-4, > 100 µM (inactive); in the assay on OVCAR-3, > 100 µM (inactive); with SK-OV-3, > 100 µM (inactive). For the same compound, the GI50 in the assay with UACC-257 was > 100 µM (inactive); in the assay with HOP-62, 60.3 µM (inactive); in the assay with DU-145, > 100 µM (inactive); in the assay with MCF7, > 100 µM (inactive); in the assay on SK-MEL-5, > 100 µM (inactive); with 786-0, > 100 µM (inactive). Moreover, the GI50 is > 100 µM (inactive) with SK-MEL-2; 34.1 µM (inactive) with SNB-75; 36.9 µM (inactive) with MOLT-4; > 100 µM (inactive) in the assay with NCI-H226; > 100 µM (inactive) with T47D.
`CC(NC(=O)C(NC(=O)OC(C)(C)C)C(C)C)C(=O)NCC(=O)O` (stereo not drawn) (Boc-Val-Ala-Gly-OH; configuration not given here): the GI50 with SF-295, with BT-549, in the assay on NCI-H23, with OVCAR-3, with SK-OV-3 and with RPMI-8226 was > 100 µM (inactive) throughout. The GI50 in the assay on UACC-257, with HOP-62, in the assay with DU-145, in the assay on SK-MEL-5, with 786-0 and in the assay on SK-MEL-2 was > 100 µM (inactive) each time. Further, the GI50 in the assay with MOLT-4 is > 100 µM (inactive); with NCI-H226, > 10 µM (inactive); in the assay with T47D, > 100 µM (inactive).
